This note sets out measurements from publication PMC10011573, “Development of novel broad-spectrum antimicrobial lipopeptides derived from plantaricin NC8 β” (Scientific Reports, 2023).

Like-named read-outs stand apart in the source and are kept apart here. Residues, ends and D or L forms follow the SMILES beside them. No end group written: not given here. *: point of attachment. Pentadecanoyl = CCCCCCCCCCCCCCC(=O)*; Decanoyl = CCCCCCCCCC(=O)*; Octanoyl = CCCCCCCC(=O)*; Butyryl = CCCC(=O)* Where only a bound is given, the exact number is not on record here.

Experiment [1] deals with E. coli (K-12 MG1655). How it is done:
(§1) S. aureus (ATCC 29213, MSSA, ATCC, Manassas, VA), E. coli (K-12 MG1655) and clinical isolates of S. aureus, E. coli, E. faecium, K. pneumoniae, A. baumannii, P. aeruginosa and E. cloacae obtained from the Department of Laboratory Medicine at Örebro University Hospital were streaked on Luria–Bertani (LB) agar plates and incubated at 37 °C overnight. Single colonies were inoculated into 5 ml of LB broth and incubated on a shaker (400 rpm) at 37 °C overnight. The bacterial concentrations were determined by viable count and were adjusted to correlate with approximately 10^9 CFU/ml.
(§2) The broth microdilution method was used to determine minimal inhibitory concentration (MIC) and minimal bactericidal concentration (MBC), in accordance with the EUCAST standards for the broth microdilution method. Two-fold serial dilutions of the lipopeptides were used, and the final concentrations ranged from 0.19 to 100 µM. In brief, two-fold serial dilutions of the lipopeptides were performed in a 96-well plate in PBS, with a final volume of 100 µl per well, after which 100 µl of LB-broth media containing approximately 5 × 10^5 CFU/ml of bacteria was added to each well. The plate was then incubated for 20 h in 37 °C on a shaker (400 rpm). The effect of lipopeptide-antibiotic combinations was investigated by performing checkerboard assays. The assays were performed in accordance with the MIC and MBC tests conducted above, but with horizontal and longitudinal two-fold serial dilutions of the tested compounds. […] The fractional inhibitory concentration (FIC) and fractional bactericidal concentration (FBC) were calculated by the equation (MIC or MBC of peptide in combination/MIC or MBC of peptide alone) + (MIC or MBC of antibiotic in combination/MIC or MBC of antibiotic alone). Synergy was defined as FIC/FBC ≤ 0.5, additive when 0.5 < FIC/FBC ≤ 1, indifferent when 1 < FIC/FBC < 2 and antagonistic when FIC/FBC ≥ 2. All experiments were repeated at least three times.

The test system of experiment [2] is S. aureus (ATCC 29213, MSSA). How it is done: as §1, §2
Experiment [3] is described as follows: Carboxyfluorescein release assay, mammalian liposome model. Type of experiment: biochemical. The settings on record: 65:5:30 POPC:POPS:Chol. liposomes, 25 µM lipid, 10 mM PBS pH 7.4, 10^–5–10^2 µM peptide, 60 min, fluorescence, Hill fit, n = 3; read-out: EC50 Mammalial (concentration that triggers 50% CF release). The method, then:
(§3) Liposomes were prepared by thin-film hydration method. Lipids stock solutions (10 mg/ml in chloroform, Avanti Polar Lipids, Inc., Alabaster, United States) of the lipids 1-palmitoyl-2-oleoyl-sn-glycero-3-phosphocholine (POPC), 1-palmitoyl-2-oleoyl-sn-glycero-3-phospho-L-serine (POPS), 1-Hexadecanoyl-2-(9Z-Octadecenoyl)-sn-Glycero-3-Phosphoglycerol (POPG) and Cholesterol (Chol) were employed. Bacterial liposomes were prepared with a 75:25 ratio of POPC:POPG and mammalian liposomes were prepared with a 65:5:30 ratio of POPC:POPS:Chol. Lipid solutions were thoroughly homogenised, and the solvent was evaporated with the use of a dry N2 steam to yield a lipid cake. […] The lipid film was subsequently hydrated with a 5(6)-CF solution (50 mM CF, 10 mM PBS, 90 mM NaCl, pH 7.4). Following a 10 min incubation on orbital shaker (50 min^−1), the solution was vortexed for 60 s on medium speed. A mini extruder (Avanti Polar Lipids, Inc., United States) was employed and 21 extrusions were performed through a 0.1 µm filter membrane (Nuclepore track-etched hydrophilic membrane, Cytiva, Whatman, MA, United States), resulting in monodispersed unilamellar liposomes. Directly before use the liposomes were purified from unencapsulated CF by filtration through a gel filtration column (PD Minitrap G-25 column, Cytiva, United States), against PBS buffer (10 mM, pH 7.4).
(§4) Peptide and lipopeptide activity towards liposome models were evaluated using a carboxyfluorescein (CF) release assay. Liposomes were diluted in PBS (10 mM, pH 7.4) to a final lipid concentration of 25 µM and incubated with peptides (10^–5–10^2 µM) in a 96-well plate (n = 3). CF release was monitored using an Infinite M1000 PRO plate reader every 2.5 min for 1 h. Full (100%) CF release was obtained by addition of 1% Triton X-100 solution followed by 10 min incubation. CF release percentage was evaluated according to the formula 100 * (F − F0)/(FT − F0), where F indicates the instantaneous fluorescence, FT the total fluorescence and F0 the background fluorescence prior to peptide addition. Data were fitted to a Hill-1 curve using MATLAB R2019a (The MathWorks Inc., Natick, Massachusetts, United States) and the half maximum effective concentration (EC50) was extracted.

Experiment [4] in a line: Carboxyfluorescein release assay, bacterial liposome model. The following applies: for EC50: 75:25 POPC:POPG liposomes, 25 µM lipid, 10 mM PBS pH 7.4, 10^–5–10^2 µM peptide, 60 min, fluorescence, Hill fit, n = 3, read-out: EC50 Bacterial (concentration that triggers 50% CF release). The experiment is classed as biochemical. The method, then:
as §3, §4

[5] abbreviates: Table 3, K-12 MG1655, broth microdilution, 50:50 PBS/LB-broth, 200 µL, 20 h, 37 °C.
Where [6] appears, read: Table 3, ATCC 29213, broth microdilution, 50:50 PBS/LB-broth, 200 µL, 20 h, 37 °C.

Take `CCCCCCCCCC(=O)N[C@@H](CC(C)C)C(=O)NCC(=O)N[C@H](C(=O)N[C@@H](CCCCN)C(=O)N[C@H](C(=O)N[C@@H](CC(C)C)C(=O)N[C@@H](Cc1c[nH]c2ccccc12)C(=O)N[C@@H](CO)C(=O)N[C@@H](C)C(=O)N[C@@H](Cc1ccc(O)cc1)C(=O)N[C@@H](CCCCN)C(=O)N[C@@H](Cc1c[nH]cn1)C(=O)N[C@@H](CCCNC(=N)N)C(=O)N[C@@H](CCCCN)C(=O)N[C@H](C(=O)N[C@H](C(N)=O)[C@@H](C)CC)[C@@H](C)O)[C@@H](C)CC)[C@@H](C)CC` [L-6-C10] (Decanoyl-LGIKILWSAYKHRKTI-NH2): in experiment [1] (K-12, 20 h), the “E. coli MBC” value is listed as greater than 100 µM and the “E. coli MIC” value is greater than 100 µM. In experiment [2] (ATCC 29213, 20 h), the “S. aureus MBC” value is greater than 100 µM and the “S. aureus MIC” value is given as 50 µM. Further, the EC50 in experiment [3] was determined as 680 nM. For the same molecule, the EC50 in experiment [4] stood at 1100 nM.
For the molecule Ac-LWSAYKHR-NH2 [S3], in experiment [1] (K-12, 20 h), the “E. coli MBC” value is given as greater than 100 µM and the “E. coli MIC” value is greater than 100 µM. In experiment [2] (ATCC 29213, 20 h), the “S. aureus MBC” value was greater than 100 µM and the “S. aureus MIC” value is on record as greater than 100 µM.
On to `CCCC(=O)N[C@@H](CC(C)C)C(=O)NCC(=O)N[C@H](C(=O)N[C@@H](CCCCN)C(=O)N[C@H](C(=O)N[C@@H](CC(C)C)C(=O)N[C@@H](Cc1c[nH]c2ccccc12)C(=O)N[C@@H](CO)C(=O)N[C@@H](C)C(=O)N[C@@H](Cc1ccc(O)cc1)C(=O)N[C@@H](CCCCN)C(=O)N[C@@H](Cc1c[nH]cn1)C(=O)N[C@@H](CCCNC(=N)N)C(=O)N[C@@H](CCCCN)C(=O)N[C@H](C(=O)N[C@H](C(N)=O)[C@@H](C)CC)[C@@H](C)O)[C@@H](C)CC)[C@@H](C)CC` [L-6-C4] (Butyryl-LGIKILWSAYKHRKTI-NH2), for which, in experiment [1] (K-12, 20 h), the “E. coli MBC” value is listed as 25 µM and the “E. coli MIC” value is 12.5 µM. Also, in experiment [2] (ATCC 29213, 20 h), the “S. aureus MBC” value is 25 µM and the “S. aureus MIC” value was 12.5 µM. In addition, in experiment [3], the EC50 is greater than 10000 nM. For the same molecule, the EC50 in experiment [4] is 110 nM.
Consider Ac-WSAYKHR-NH2 [S4], for which, in experiment [1] (K-12, 20 h), the “E. coli MBC” value is reported as greater than 100 µM and the “E. coli MIC” value was greater than 100 µM. For the same molecule, in experiment [2] (ATCC 29213, 20 h), the “S. aureus MBC” value is on record as greater than 100 µM and the “S. aureus MIC” value was greater than 100 µM.
With `CCCCCCCCCCCCCCC(=O)N[C@@H](CC(C)C)C(=O)NCC(=O)N[C@H](C(=O)N[C@@H](CCCCN)C(=O)N[C@H](C(=O)N[C@@H](CC(C)C)C(=O)N[C@@H](Cc1c[nH]c2ccccc12)C(=O)N[C@@H](CO)C(=O)N[C@@H](C)C(=O)N[C@@H](Cc1ccc(O)cc1)C(=O)N[C@@H](CCCCN)C(=O)N[C@@H](Cc1c[nH]cn1)C(=O)N[C@@H](CCCNC(=N)N)C(=O)N[C@@H](CCCCN)C(=O)N[C@H](C(=O)N[C@H](C(N)=O)[C@@H](C)CC)[C@@H](C)O)[C@@H](C)CC)[C@@H](C)CC` [L-6-C15] (Pentadecanoyl-LGIKILWSAYKHRKTI-NH2), in experiment [1] (K-12, 20 h), the “E. coli MBC” value is listed as greater than 100 µM and the “E. coli MIC” value is greater than 100 µM. Moreover, in experiment [2] (ATCC 29213, 20 h), the “S. aureus MBC” value was greater than 100 µM and the “S. aureus MIC” value is given as greater than 100 µM. Moreover, the EC50 in experiment [3] turned out to be 870 nM. Moreover, the EC50 in experiment [4] worked out at 19400 nM.
Regarding Ac-ILWSAYKHR-NH2 [S2], in experiment [1] (K-12, 20 h), the “E. coli MBC” value is listed as greater than 100 µM and the “E. coli MIC” value is reported as greater than 100 µM. Moreover, in experiment [2] (ATCC 29213, 20 h), the “S. aureus MBC” value is reported as greater than 100 µM and the “S. aureus MIC” value is reported as greater than 100 µM.
Ac-WSAYKH-NH2 [S5]: in experiment [1] (K-12, 20 h), the “E. coli MBC” value is listed as greater than 100 µM and the “E. coli MIC” value is reported as greater than 100 µM. In experiment [2] (ATCC 29213, 20 h), the “S. aureus MBC” value was greater than 100 µM and the “S. aureus MIC” value was greater than 100 µM.
In the case of Ac-KILWSAYKHR-NH2 [S1], in experiment [1] (K-12, 20 h), the “E. coli MBC” value is reported as greater than 100 µM and the “E. coli MIC” value is greater than 100 µM. In addition, in experiment [2] (ATCC 29213, 20 h), the “S. aureus MBC” value is greater than 100 µM and the “S. aureus MIC” value is reported as greater than 100 µM.
Regarding PEG800-LGIKILWSAYKHRKTI [L-6-Peg800], in experiment [1] (setting [5]), the “E. coli MBC” value is greater than 100 µM and the “E. coli MIC” value was greater than 100 µM. In experiment [2] (setting [6]), the “S. aureus MBC” value is given as greater than 100 µM and the “S. aureus MIC” value is greater than 100 µM.
`CCCCCCCC(=O)N[C@@H](CC(C)C)C(=O)NCC(=O)N[C@H](C(=O)N[C@@H](CCCCN)C(=O)N[C@H](C(=O)N[C@@H](CC(C)C)C(=O)N[C@@H](Cc1c[nH]c2ccccc12)C(=O)N[C@@H](CO)C(=O)N[C@@H](C)C(=O)N[C@@H](Cc1ccc(O)cc1)C(=O)N[C@@H](CCCCN)C(=O)N[C@@H](Cc1c[nH]cn1)C(=O)N[C@@H](CCCNC(=N)N)C(=O)N[C@@H](CCCCN)C(=O)N[C@H](C(=O)N[C@H](C(N)=O)[C@@H](C)CC)[C@@H](C)O)[C@@H](C)CC)[C@@H](C)CC` [L-6-C8] (Octanoyl-LGIKILWSAYKHRKTI-NH2): in experiment [1] (K-12, 20 h), the “E. coli MBC” value stood at 12.5 µM and the “E. coli MIC” value is on record as 12.5 µM. In addition, in experiment [2] (ATCC 29213, 20 h), the “S. aureus MBC” value is reported as 3.1 µM and the “S. aureus MIC” value came to 3.1 µM. For the same molecule, in experiment [3], the EC50 came to 940 nM. The EC50 in experiment [4] amounted to 190 nM.
With Ac-WSAYK-NH2 [S6], in experiment [1] (K-12, 20 h), the “E. coli MBC” value is on record as greater than 100 µM and the “E. coli MIC” value is greater than 100 µM. Besides, in experiment [2] (ATCC 29213, 20 h), the “S. aureus MBC” value was greater than 100 µM and the “S. aureus MIC” value is greater than 100 µM.
Regarding “SVPTSVYTLGIKILWSAYKHRKTIEKSFNKGFYH [PLNC8 β, reference compound]”, in experiment [1] (Table 2, K-12 MG1655, broth microdilution, 50:50 PBS/LB-broth, 200 µL, 20 h, 37 °C), the “E. coli MIC” value is greater than 100 µM. Also, the “E. coli MBC” value is listed as greater than 100 µM in experiment [1] (Table 2, K-12 MG1655, broth microdilution, 50:50 PBS/LB-broth, 20 h, 37 °C, 10 µl drops on LB-agar) and greater than 100 µM in experiment [1] (setting [5]). For the same molecule, the “S. aureus MBC” value is recorded as greater than 100 µM in experiment [2] (Table 2, ATCC 29213, broth microdilution, 50:50 PBS/LB-broth, 20 h, 37 °C, 10 µl drops on LB-agar) and greater than 100 µM in experiment [2] (setting [6]). Further, the “S. aureus MIC” value in experiment [2] (Table 2, ATCC 29213, broth microdilution, peptide in PBS, bacteria in LB-broth, 200 µL, 50:50 PBS/broth, ~5 × 10^5 CFU/ml, 20 h, 37 °C, repeated at least three times) is greater than 100 µM; in experiment [2] (setting [6]), greater than 100 µM. For the same molecule, the EC50 in experiment [3] turned out to be 1260 nM; in experiment [4], 20 nM. The CF release in experiment [4] (bacterial-mimicking liposomes, peptide 100 pM, after 60 min of incubation) is given as ~ 20%.
